How the values were obtained:
[1] = target: Carbonic anhydrase 7 (Homo sapiens, UniProt P43166)
[2] = target: Carbonic anhydrase 2 (Homo sapiens, UniProt P00918)
[3] = target: Carbonic anhydrase 1 (Homo sapiens, UniProt P00915)
Sequence of Carbonic anhydrase 1 (P00915 whole entry): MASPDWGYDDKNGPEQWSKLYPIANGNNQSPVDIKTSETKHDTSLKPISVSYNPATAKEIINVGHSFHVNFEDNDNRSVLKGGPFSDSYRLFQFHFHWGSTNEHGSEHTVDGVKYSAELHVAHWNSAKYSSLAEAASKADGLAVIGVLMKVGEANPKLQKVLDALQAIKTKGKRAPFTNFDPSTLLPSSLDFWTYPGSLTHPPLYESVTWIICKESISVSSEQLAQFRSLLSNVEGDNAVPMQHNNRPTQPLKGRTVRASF

Sequence of Carbonic anhydrase 7 (P43166 whole entry): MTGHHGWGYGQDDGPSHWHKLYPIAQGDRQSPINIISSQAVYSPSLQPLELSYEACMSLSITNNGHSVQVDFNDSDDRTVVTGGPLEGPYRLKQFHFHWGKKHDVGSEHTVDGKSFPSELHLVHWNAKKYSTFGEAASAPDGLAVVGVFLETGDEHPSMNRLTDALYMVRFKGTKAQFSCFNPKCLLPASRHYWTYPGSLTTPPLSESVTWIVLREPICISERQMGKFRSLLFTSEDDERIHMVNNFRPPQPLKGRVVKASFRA

Row | Ki [1] [µM] | Ki [2] [µM] | Ki [3] [µM] | Structure (SMILES)
1 | 0.0062 | 0.05 | 0.061 | NS(=O)(=O)c1ccc(NC(=O)Cc2cccs2)cc1
2 | 0.0047 | 0.107 | 0.108 | NS(=O)(=O)c1ccc(NC(=O)Cc2ccccc2)cc1
3 | 0.0076 | 0.053 | 0.068 | NS(=O)(=O)c1ccc(CCNC(=O)Cc2cccs2)cc1

Row | Structure (SMILES) | Ki [1] [µM] | Ki [2] [µM] | Ki [3] [µM]
4 | NS(=O)(=O)c1ccc(CNC(=O)Cc2cccs2)cc1 | 0.0071 | 0.052 | 0.06
